Experiments:
Assay type in all cases: binding
lysozyme (Lyo) = assay: Intact protein MS photoaffinity labeling screen, lysozyme; conditions: intact protein MS after 10 min irradiation
Summary of the method: (§1)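 Intact-protein mass spectrometry detected covalent adduct mass shifts, giving percent labeling per fragment. Beforehand, single fragments per well were pre-incubated 15 min with each benchmark protein ahead of photoactivation.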

STAT5B-NTD [1] = tested on: T1, STAT5B-NTD; assay: Intact MS photoaffinity labeling screen, STAT5B-NTD (365 nm, UHPLC-MS); conditions: for MS labeling percentage, STAT5B: STAT5B-NTD, 365 nm 10 min, no photocatalyst; for experimental hit status STAT5B-NTD: 0/1 flag;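 for MS labeling percentage, STAT5B: 0.17 µL of 100 mM DMSO fragment stock added to the protein sample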
T1 construct: His-SUMO (N, cleaved yes); made in house; host or cells: E. coli BL21 RILP
Summary of the method: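 Intact-protein labeling detected by UHPLC-MS in positive ion mode over m/z 100–2000. Samples were first photo-crosslinked at 365 nm for 10 min at 4 °C. Before irradiation, 7 µM STAT5B in PBS pH 7.4 was pre-incubated with probe for 1 h in the dark at room temperature.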

STAT5B-NTD [2] = tested on: T1, STAT5B-NTD; assay: Intact MS labeling screen, STAT5B-NTD conjugated with photocatalyst Ir-G2-PEG3-COOH (450 nm); conditions: 450 nm 10 min;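 note: 0.14 µL of 100 mM DMSO fragment stock added to the conjugate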
Summary of the method: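 Ir-G2-PEG3-COOH photocatalyst (10 eq) activated 30 min with EDC/NHS/BOP, then conjugated to STAT5B-NTD (7 µM) overnight at RT or 1 h at 37 °C in dark. PhP added, 1 h dark, then 450 nm irradiation 10 min at 4 °C; labeling read by intact LC-MS, positive ion mode, m/z 100–2000.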

myoglobin (Myo) = assay: Intact protein MS photoaffinity labeling screen, myoglobin; conditions: intact protein MS after 10 min irradiation
Summary of the method: as §1

[3] = tested on: carbonic anhydrase II (CA); assay: Intact protein MS photoaffinity labeling screen, carbonic anhydrase; conditions: intact protein MS after 10 min irradiation
Summary of the method: as §1

BRD4-BD1 = tested on: T2, BRD4-BD1; assay: Intact MS photoaffinity labeling screen, BRD4-BD1 (302 nm, LCMS-TOF); conditions: for MS labeling percentage, BRD4: BRD4-BD1, 302 nm 10 min; for experimental hit status BRD4-BD1: 0/1 flag
T2 construct: screened the PhP library against the first bromodomain of BRD4 (BRD4-BD1); purchased GSK/GenScript
Summary of the method: (§2)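 Labeling detected as mass additions in deconvoluted intact-protein LCMS-TOF spectra. Protein at 1 μM in PBS was first mixed with one fragment per well on ice for 15 min, followed by 10 min UV exposure at 302 nm.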

KRas^G12D = tested on: T3, KRas^G12D; assay: Intact MS photoaffinity labeling screen, KRas G12D (302 nm, LCMS-TOF); conditions: for MS labeling percentage, KRas: KRas G12D, 302 nm 10 min; for experimental hit status KRAS-G12D: 0/1 flag
T3 construct: purchased GSK/GenScript
Summary of the method: as §2

[4] = hit flag 1/0, sheet PhP, photoaffinity labeling screen
[5] = sheet PhP, experimental hit status flag given as 0 or 1
[6] = hit status flag, 1 = hit, 0 = no hit
[7] = PhP library sheet "PhP", binary flag printed as 0 or 1, key not given
[8] = experimental hit status flag (0/1)

SMILES	MS labeling percentage, Lyo (lysozyme (Lyo)) [%]	MS labeling percentage, STAT5B (STAT5B-NTD [1]) [%]	MS labeling percentage, STAT5B+photocat (STAT5B-NTD [2]) [%]	MS labeling percentage, Myo (myoglobin (Myo)) [%]	MS labeling percentage, CA [3] [%]	MS labeling percentage, BRD4 (BRD4-BD1) [%]	MS labeling percentage, KRas (KRas^G12D) [%]	other results
CC1(CCC(=O)NCc2c(O)ccc3ccccc23)N=N1 [PhP057, N1=NC1(C)CCC(=O)NCc(c(O)cc2)c(c23)cccc3]	2.2	0	3.4	0.7	0.4	1.6	1.1	STAT5B-NTD (experimental hit status) (STAT5B-NTD [1]; [4]): 0; BRD4-BD1 (experimental hit status) (BRD4-BD1; [4]): 0; KRAS-G12D (experimental hit status) (KRas^G12D; [4]): 0
COC(=O)[C@@H](Cc1c[nH]c2ccccc12)NC(=O)CCC1(C)N=N1 [PhP036, N1=NC1(C)CCC(=O)N[C@@H](C(=O)OC)Cc(c[nH]2)c(c23)cccc3]	0.4	2	5.4	0	0.2	0.6	1	experimental hit status STAT5B-NTD (STAT5B-NTD [1]): 0; experimental hit status BRD4-BD1 (BRD4-BD1): 0; experimental hit status KRAS-G12D (KRas^G12D): 0
CC1(CCC(=O)NCCCn2ccnc2)N=N1 [PhP050, N1=NC1(C)CCC(=O)NCCCn2ccnc2]	0	1	0.4	0.2	0.3	0.4	0.6	STAT5B-NTD (experimental hit status) (STAT5B-NTD [1]; [4]): 0; BRD4-BD1 (experimental hit status) (BRD4-BD1; [4]): 0; KRAS-G12D (experimental hit status) (KRas^G12D; [4]): 0
CC(C)CN1CCOC(CNC(=O)CCC2(C)N=N2)C1 (centres unmarked) [PhP046, CC(C)CN1CCOC(C1)CNC(=O)CCC2(C)N=N2]	0	1	0.7	0.3	0.2	0.1	0.2	STAT5B-NTD (experimental hit status) (STAT5B-NTD [1]; [4]): 0; BRD4-BD1 (experimental hit status) (BRD4-BD1; [4]): 0; KRAS-G12D (experimental hit status) (KRas^G12D; [4]): 0
CCc1cc(NC(=O)CCC2(C)N=N2)nc(C)n1 [PhP076, CCc1cc(nc(n1)C)NC(=O)CCC2(C)N=N2]	0	2	3.2	0.2	0.1	0.9	0.2	STAT5B-NTD (experimental hit status) (STAT5B-NTD [1]; [5]): 0; BRD4-BD1 (experimental hit status) (BRD4-BD1; [5]): 0; KRAS-G12D (experimental hit status) (KRas^G12D; [5]): 0
CN(C)CC(=O)Nc1cccc(NC(=O)CCC2(C)N=N2)c1 [PhP100, CN(C)CC(=O)Nc1cccc(c1)NC(=O)CCC2(C)N=N2]	0	1	0	0.1	0.1	0.6	0	STAT5B-NTD (experimental hit status) (STAT5B-NTD [1]; [6]): 0; BRD4-BD1 (experimental hit status) (BRD4-BD1; [6]): 0; KRAS-G12D (experimental hit status) (KRas^G12D; [6]): 0
COc1ccccc1OCCNC(=O)CCC1(C)N=N1 [PhP044, COc1ccccc1OCCNC(=O)CCC2(C)N=N2]	0	1	1.4	0	0.2	0.2	0	STAT5B-NTD (experimental hit status) (STAT5B-NTD [1]; [4]): 0; BRD4-BD1 (experimental hit status) (BRD4-BD1; [4]): 0; KRAS-G12D (experimental hit status) (KRas^G12D; [4]): 0
CC1(CCC(=O)NC(CO)Cc2c[nH]c3ccccc23)N=N1 (centres unmarked) [PhP064, N1=NC1(C)CCC(=O)NC(CO)Cc(c[nH]2)c(c23)cccc3]	0.7	2.9	1.9	0.3	0.5	1.1	3.1	STAT5B-NTD (experimental hit status) (STAT5B-NTD [1]; [5]): 0; BRD4-BD1 (experimental hit status) (BRD4-BD1; [5]): 0; KRAS-G12D (experimental hit status) (KRas^G12D; [5]): 0
CC1(CCC(=O)Nc2ccc3c(c2)NC(=O)CC3)N=N1 [PhP075, N1=NC1(C)CCC(=O)Nc(cc2)cc(c23)NC(=O)CC3]	0	2	0.5	0.1	0.2	1.3	0.2	STAT5B-NTD (experimental hit status) (STAT5B-NTD [1]; [5]): 0; BRD4-BD1 (experimental hit status) (BRD4-BD1; [5]): 0; KRAS-G12D (experimental hit status) (KRas^G12D; [5]): 0
CC1(CCC(=O)Nc2ccc3oc(CN4CCCC4)nc3c2)N=N1 [PhP089, N1=NC1(C)CCC(=O)Nc2ccc3oc(CN4CCCC4)nc3c2]	0	1	1	0.1	0.4	0.2	0	STAT5B-NTD (experimental hit status) (STAT5B-NTD [1]; [7]): 0; BRD4-BD1 (experimental hit status) (BRD4-BD1; [7]): 0; KRAS-G12D (experimental hit status) (KRas^G12D; [7]): 0
CN1C(=O)COc2ccc(NC(=O)CCC3(C)N=N3)cc21 [PhP007, O1CC(=O)N(C)c(c12)cc(cc2)NC(=O)CCC3(C)N=N3]	1.8	1	12.7	0.1	0.2	0.4	0.2	STAT5B-NTD (STAT5B-NTD [1]; [8]): 0; BRD4-BD1 (BRD4-BD1; [8]): 0; KRAS-G12D (KRas^G12D; [8]): 0
CC1(CCC(=O)NC2CCc3[nH]cnc3C2)N=N1 (centres unmarked) [PhP085, N1=NC1(C)CCC(=O)NC(CC2)Cc(c23)nc[nH]3]	0	1	1.2	0.1	0.4	0.3	0.3	STAT5B-NTD (experimental hit status) (STAT5B-NTD [1]; [7]): 0; BRD4-BD1 (experimental hit status) (BRD4-BD1; [7]): 0; KRAS-G12D (experimental hit status) (KRas^G12D; [7]): 0
CC1(CCC(=O)NCc2ccccc2O)N=N1 [PhP028, N1=NC1(C)CCC(=O)NCc2ccccc2O]	0	1	0.3	0.2	0	57	0.4	experimental hit status STAT5B-NTD (STAT5B-NTD [1]): 0; experimental hit status BRD4-BD1 (BRD4-BD1): 0; experimental hit status KRAS-G12D (KRas^G12D): 0
Cn1nccc1C(=O)NCCNC(=O)CCC1(C)N=N1 [PhP095, Cn1nccc1C(=O)NCCNC(=O)CCC2(C)N=N2]	0	0	2.4	0.1	0.2	0.4	0.1	STAT5B-NTD (experimental hit status) (STAT5B-NTD [1]; [7]): 0; BRD4-BD1 (experimental hit status) (BRD4-BD1; [7]): 0; KRAS-G12D (experimental hit status) (KRas^G12D; [7]): 0

Reference: paper PMC11292009, “Mapping protein binding sites by photoreactive fragment pharmacophores” (Communications Chemistry, 2024)
